{"source": "a melting point compilation (Tetko et al.; mined from patent text by program, amines drawn as free bases though some values may be those of a salt)"}
{"units": {"melting point": "°C"}}
{"smiles": "CCOC(=O)c1ccc(NC(=O)C=C(C)c2ccc(Cl)cc2)cc1", "melting point": "150 to 152"}
{"smiles": "Cn1cc(-c2cc(-c3cnc4ccccc4c3)ccn2)n(-c2ccc(C(C)(C)C(N)=O)cc2)c1=O", "melting point": 259}
{"smiles": "CNS(=O)(=O)c1ccccc1Nc1nc(Nc2ccc3c(c2)CCN(S(C)(=O)=O)CC3)ncc1Cl", "melting point": "199 to 201"}
{"smiles": "COc1cc(C=NO)c2oc(-c3ccc(OC)c(F)c3)cc2c1", "melting point": "208 to 210"}
{"smiles": "CC(OCc1cc2nc(C(F)(F)F)ccc2n1S(=O)(=O)c1ccccc1)C(=O)O", "note": "(stereo not drawn)", "melting point": 140}
{"smiles": "N=C(NCCNC(c1ccccc1)(c1ccccc1)c1ccccc1)N[N+](=O)[O-]", "melting point": "217 to 219"}
{"smiles": "CC(=O)CNC(=O)c1ccccc1C", "melting point": "65 to 66"}
{"smiles": "CC(=O)OCC1OC(c2ccc(F)c(Cc3ccc(Br)s3)c2)C(OC(C)=O)C(OC(C)=O)C1OC(C)=O", "note": "(stereo not drawn)", "melting point": "127 to 129"}
{"smiles": "COc1ccc(C(=O)OC2CCCC2)nc1Cl", "melting point": "90 to 92"}
{"smiles": "COC(=O)c1ccc2ccc3ccccc3c(=O)c2c1", "melting point": "118 to 120"}
{"smiles": "CC1=CC(=O)C(N)=CC1=N", "melting point": 205}
{"smiles": "c1ccc(CSc2ncccc2C2=NOCC2)cc1", "melting point": "97 to 98"}
{"smiles": "COCCC1(C(=O)N[C@@H](Cc2ccc(NC(=O)c3c(Cl)cccc3Cl)cc2)C(=O)OC)CCCC1", "melting point": "85 to 87"}
{"smiles": "Cc1cnc2c(c1)C(O)C(Cc1ccc(C#N)cc1)CC2", "note": "(stereo not drawn)", "melting point": "174 to 175"}
{"smiles": "CN1C=Cc2ccccc2CC1=O", "melting point": "81 to 82"}
{"smiles": "CN1C(=O)C(=O)c2cccnc21", "melting point": "162 to 163"}
{"smiles": "COCOCc1cccc(-c2ccc(C(=O)OC)cc2)c1", "melting point": "54 to 55"}
{"smiles": "NC(=O)c1ncn2c(-c3cccnc3)ccnc12", "melting point": "> 260"}
{"smiles": "COc1cc(Cc2cnc(N)nc2N)cc2c1OC(C)(C)C=C2Br", "melting point": "238 to 239"}
{"smiles": "O=C(O)c1cc(=O)c(Cl)c(-c2ccccc2)o1", "melting point": "216 to 218"}
{"smiles": "CCOC(=O)C1=C(c2ccc(-n3c(C)nc4cnccc43)cc2)NC(OC)=NC1c1ccccc1Cl", "note": "(stereo not drawn)", "melting point": "228 to 232"}
{"smiles": "FC(F)(F)c1ccc(Oc2ccc(OCc3ccccc3)cc2)c(Cl)c1", "melting point": "63 to 66"}
{"smiles": "COC(=O)C(C)(C)Nc1cc(Cl)ccc1[N+](=O)[O-]", "melting point": "87 to 89"}
{"smiles": "CC(C)S(=O)(=O)Nc1cc(C(=O)c2ccccc2)ccc1[N+](=O)[O-]", "melting point": "115 to 116"}
{"smiles": "COC(=O)c1cc(=O)c2c(C)cc(C)cc2[nH]1", "melting point": "227 to 229"}
{"smiles": "O=C1CCC(c2ccc(OCCCN3C(=O)c4ccccc4C3=O)c(Cl)c2)=NN1", "melting point": "230 to 232"}
{"smiles": "CCOC(=O)c1ccc(N(CCOc2ccc(C(C)=O)c3ccccc23)C(=O)C(F)(F)F)cc1", "melting point": "160 to 161"}
{"smiles": "Fc1cnc(Nc2nc3c(s2)CCN(CCCN2CCOCC2)c2n[nH]cc2-3)nc1", "melting point": "251 to 254"}
{"smiles": "CN(c1ccc(S(C)(=O)=O)cc1)S(=O)(=O)c1cccc(NC(=O)c2ccc(S(C)=O)cc2)c1", "note": "(stereo not drawn)", "melting point": "184 to 186"}
{"smiles": "CC(=O)NCc1cc(-c2ccccc2)c2c(n1)OCCN(Cc1cc(C(F)(F)F)cc(C(F)(F)F)c1)C2=O", "melting point": "223 to 224"}
{"smiles": "CCCCOc1c(CNC(=O)OC(C)(C)C)n(CC(C)C)c(=O)c2ccc(NC(=O)OCC3c4ccccc4-c4ccccc43)cc12", "melting point": "137 to 138"}
{"smiles": "CC(C)C[C@H](NC(=O)OCc1ccccc1)C(=O)N[C@@H](Cc1ccccc1)C(=O)CSc1ccccc1", "melting point": "105 to 106"}
{"smiles": "Cc1c(C)c(N2CCN(c3ccc(OC(F)(F)F)cc3)CC2)c(C)c2c1OC(C)(C)C2", "melting point": "216 to 219"}
{"smiles": "O=Cc1cccc(OCc2ccc3ccccc3c2)c1", "melting point": "105 to 106"}
{"smiles": "CC(=O)OC1C(C)OC(Oc2nc[nH]c2C(N)=O)C(OC(C)=O)C1OC(C)=O", "note": "(stereo not drawn)", "melting point": "184 to 186"}
{"smiles": "CCCCN(Cc1ccc(-c2ccccc2-c2nnn[nH]2)cc1)c1ncncc1C(=O)OC(C)OC(=O)C(C)(C)C", "note": "(stereo not drawn)", "melting point": "71 to 85"}
{"smiles": "C=CCNC(=O)N1CC(OCc2ccc(F)cc2)C1", "melting point": "97 to 99"}
{"smiles": "CC(C(=O)O)c1ccc2c(c1)C(c1ccccc1)=NCC(=O)N2", "note": "(stereo not drawn)", "melting point": "252 to 255"}
{"smiles": "O=C(C=Cc1cccc(Oc2ccccc2)c1)NCCCCCC(=O)NO", "melting point": "113 to 115"}
{"smiles": "Cc1c2c(nc3ccccc13)CCN(S(=O)(=O)c1ccc(Cl)cc1)CC2", "melting point": 189}
{"smiles": "Cc1ccccc1-c1nc(Cl)c2ccccc2n1", "melting point": "103 to 104"}
{"smiles": "CC(=O)NCCOc1nc(-c2ccc(F)cc2C)c2ccc(=O)n(-c3c(F)cccc3F)c2n1", "melting point": "75 to 79"}
{"smiles": "Nc1nc(-c2cc(F)cc(F)c2)nc2nc(-c3ccco3)nn12", "melting point": "356 to 360"}
{"smiles": "COc1cc([N+](=O)[O-])c(N)cc1C(=O)N1CCCC1", "melting point": "159 to 162"}
{"smiles": "O=C1CC(c2ccccc2)Cc2[nH]ccc(=O)c21", "note": "(stereo not drawn)", "melting point": "207 to 209"}
{"smiles": "C[C@H]1C[C@@](O)(c2cccc(S(=O)(=O)c3ccc4c(c3)CCC(=O)N4)c2)CCO1", "melting point": "178 to 180"}
{"smiles": "CCOC(=O)Cc1ccc2c(c1)sc1cc(N(C)C)ccc12", "melting point": "115 to 120"}
{"smiles": "O=C1NC(=O)C(c2cccc(C(F)(F)F)c2)O1", "note": "(stereo not drawn)", "melting point": "93 to 96"}
{"smiles": "CC(C)CC(=O)OC1COC(OC(=O)CC(C)C)CO1", "note": "(stereo not drawn)", "melting point": "104 to 105"}
{"smiles": "CC(C(O)c1cc(F)c(OCc2ccccc2)c(F)c1)N1CCC(O)(c2ccc(C(F)(F)F)cc2)CC1", "note": "(stereo not drawn)", "melting point": "201 to 202"}
{"smiles": "O=S(=O)(c1ccccc1)n1c2ccc(CCc3ccccc3)cc2c2cc(Cl)cnc21", "melting point": "158 to 162"}
{"smiles": "CCC(=O)N1C(=O)C2C=CC1C2", "note": "(stereo not drawn)", "melting point": "54 to 56"}
{"smiles": "O=[N+]([O-])c1cccc2c1sc1c(Nc3cccc(Br)c3)ncnc12", "melting point": "247 to 248"}
{"smiles": "CCC(CC)C(=C(C#N)c1nc[nH]n1)S(=O)(=O)c1ccc(C)cc1", "melting point": "78 to 87"}
{"smiles": "CC1CCC(Nc2ccc(Br)cc2)c2ncc(C(=O)O)c(=O)n21", "note": "(single isomer, unassigned; (-))", "melting point": "210 to 211"}
{"smiles": "CC(=O)OCCn1nc(-c2cc(C(C)(C)C)c(O)c(C(C)(C)C)c2)c2ccc(C(C)C)nc21", "melting point": "121 to 122"}
{"smiles": "CN1CCN(Cc2c(Cl)ccc(C(=O)O)c2Cl)C1=O", "melting point": 221}
{"smiles": "Nc1cccc2c1Cc1ccccc1C2=O", "melting point": "158 to 161"}
{"smiles": "Cc1cccnc1C1CC(C)(C)Oc2ccc([N+](=O)[O-])cc21", "note": "(stereo not drawn)", "melting point": "164 to 165"}
{"smiles": "CCCC(=O)Nc1ccc2c(c1)CCC(CN1CCC(O)(c3ccccc3)CC1)C2=O", "note": "(stereo not drawn)", "melting point": "196 to 198"}
{"smiles": "CN(C)Cc1c(O)ccc2cc(Br)ccc12", "melting point": "95 to 96"}
{"smiles": "C=Cc1cc(CNC(=O)NCc2ccc(C(C)(C)C)cc2)cc(C)c1NS(C)(=O)=O", "melting point": "105 to 107"}
{"smiles": "CCNC(=O)c1ccc(N2CCN(Cc3cc4c(c(OC(F)F)c3)OC(C)C(=O)N4)CC2)cc1", "note": "(stereo not drawn)", "melting point": "219 to 224"}
{"smiles": "Cc1nc2cc(Cl)c(Cl)cc2n1C1CC(CO)C(O)C1O", "note": "(stereo not drawn)", "melting point": "198 to 200"}
{"smiles": "COc1ccc(C[C@H]2CC[C@@H]3[C@@H](CCC(=O)N3Cc3ccccc3)C2)cc1", "melting point": "118 to 119"}
{"smiles": "CC(=O)Nc1ccc(S(=O)c2ccc(Cl)cc2)cc1", "note": "(stereo not drawn)", "melting point": "160 to 162"}
{"smiles": "CCCCCCCCCC=CC(=O)C1C(=O)C=C(C)OC1=O", "note": "(stereo not drawn)", "melting point": "112 to 113"}
{"smiles": "CCOC(=O)C=Nc1c(Cl)cccc1C(=O)O", "melting point": 175}
{"smiles": "COc1cc2ncnc(N3CCN(C(=O)Nc4ccc(OC(C)C)cc4)CC3)c2cc1OC", "melting point": "220 to 222"}
{"smiles": "Fc1cc(CC2(Cc3ccnc(F)c3)c3cc(I)ccc3-c3ncccc32)ccn1", "melting point": "158 to 161"}
{"smiles": "O=C1N(CC2CCOCC2)c2ccccc2C12COc1cc3c(cc12)OCCO3", "note": "(stereo not drawn)", "melting point": "129 to 131"}
{"smiles": "N#Cc1ccccc1C=Cc1ccccc1C#N", "melting point": "187 to 189"}
{"smiles": "COC(=O)c1ccc(Cn2c(=O)c3cc(C(=O)NCc4cccc(OC)c4)sc3n(C)c2=O)cc1C", "melting point": "175 to 177"}
{"smiles": "C[C@H]1C=CC2=C[C@@H](O)C[C@H](OC(=O)CC(C)(C)C)[C@@H]2[C@H]1CC[C@@H]1C[C@@H](O)CC(=O)O1", "melting point": 155}
{"smiles": "N#CCCN(C=O)CC(=O)O", "melting point": "112 to 114"}
{"smiles": "CCOCc1cccc2[nH]cc(C(COC)C(C(=O)OCC)[N+](=O)[O-])c12", "note": "(stereo not drawn)", "melting point": "118 to 120"}
{"smiles": "CS(=O)(=O)c1ccc(-c2cnn(Cc3ccncc3)c(=O)c2-c2ccc(F)cc2)cc1", "melting point": "153 to 156"}
{"smiles": "CC(=O)Nc1ccccc1C1OC(=O)NC1=O", "note": "(stereo not drawn)", "melting point": "197 to 198"}
{"smiles": "CCCCCCCCCCCCCCCCSCC(CNS(=O)(=O)CCCI)NC(=O)OC", "note": "(stereo not drawn)", "melting point": "79 to 81"}
{"smiles": "COC(=O)c1ccc(CBr)c(NC(=O)c2ccc(C(C)(C)C)cc2C(=O)OC(C)(C)C)c1", "melting point": 135}
{"smiles": "Cc1noc(C)c1C(=O)Nc1ccc(-n2nc(C(F)(F)F)cc2C2CC2)cc1", "melting point": "170 to 172"}
{"smiles": "Cc1ccc(C=C2C3=C(C=CC2(C)C)CC(C)CN3)cc1", "note": "(stereo not drawn)", "melting point": 153}
{"smiles": "CC(C)SC1=C(Cl)CSS1=O", "note": "(stereo not drawn)", "melting point": 60}
{"smiles": "Cc1ccc2c(c1)C=Cc1ncccc1C2c1cn(C)c(=O)[nH]c1=S", "note": "(stereo not drawn)", "melting point": "157 to 160"}
{"smiles": "CNc1ccc2sc3ccccc3c(=O)c2c1", "melting point": "172 to 175"}
{"smiles": "CCc1c(C(F)(F)F)nn(-c2ccc(S(N)(=O)=O)nc2)c1-c1ccc(-c2cncs2)c(F)c1", "melting point": "189 to 191"}
{"smiles": "CC1C(=O)N(c2ccccc2)C(=S)N1Cc1ccc(Oc2ccccc2)cc1", "note": "(stereo not drawn)", "melting point": 122}
{"smiles": "COC(=O)c1ccc(C(=O)N[C@@H]2CCCC[C@@H]2c2ccc(OC)c(OC)c2)cc1", "melting point": "154 to 156"}
{"smiles": "CCC(CC)c1cccc(C[C@H]2C(=O)O[C@H](c3ccccc3)[C@H](c3ccccc3)N2C(=O)OC(C)(C)C)c1", "melting point": "143 to 144"}
{"smiles": "O=[N+]([O-])c1ccc(Oc2ccc3cc(Oc4ccc([N+](=O)[O-])c(O)c4)ccc3c2)cc1O", "melting point": "244 to 246"}
{"smiles": "CCCc1nc(C)nc(Cl)c1Cc1ccc([N+](=O)[O-])cc1", "melting point": 65}
{"smiles": "O=Cc1cccc(Cl)n1", "melting point": 136}
{"smiles": "Cc1ccc(I)cc1O", "melting point": 60}
{"smiles": "CC#CC(=O)N[C@H]1CC[C@H](CCN2CCN(c3nccc4c3OCC4)CC2)CC1", "melting point": 176}
{"smiles": "COc1ccc(-c2[nH]nc3c2C(=O)c2c(NC(=O)C4CCCC4)cccc2-3)cc1", "melting point": 267}
{"smiles": "COC(=O)c1cc(F)c(OS(=O)(=O)c2c(C)cc(C)cc2C)nc1Nc1ccc(F)cc1F", "melting point": "153 to 155"}
{"smiles": "CCC(=O)N1CCC[C@H]1C(=O)O", "melting point": "98 to 99"}
{"smiles": "Cc1nc2ccc(S(=O)(=O)n3c(COC(C)C(=O)O)cc4cc(C(F)(F)F)ccc43)cc2s1", "note": "(stereo not drawn)", "melting point": "146 to 148"}
